Test results reported in US20230203081A1, “LINCOSAMIDE ANTIBIOTICS AND USES THEREOF” (President and Fellows of Harvard College, priority 2020, published 2023).
In brackets after ≈: the same amount, converted by molar mass.

What was measured:
Format in all cases: cell-based
[1] = test system: broad panel of different clinical isolates; assay: microbe, parasite or virus in culture
Summary of the method: (§1)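 Inoculum for broth microdilution was 5×10^5 CFU/mL final, prepared from overnight 35° C blood-agar subcultures (separate handling for streptococcal and anaerobic strains); MICs read by CLSI broth microdilution or agar dilution.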

E. coli armA = assay: microbe, parasite or virus in culture; settings: Escherichia coli, E. coli HAV#056; Clinical, armA
Summary of the method: as §1

S. aureus MP-549 msrA = assay: microbe, parasite or virus in culture; settings: Staphylococcus aureus, MP549MSRA; S. aureus HAV#032, MP-549; MSR(A)
Summary of the method: as §1

E. coli ΔTolC = assay: microbe, parasite or virus in culture; settings: Escherichia coli, E. coli HAV#038; ΔTolC
Summary of the method: as §1

S. aureus BAA 977 iErmA = assay: microbe, parasite or virus in culture; settings: Staphylococcus aureus, BAA-977 / MRSA
Summary of the method: as §1

S. pneumoniae ATCC 49619 = assay: MIC (broth microdilution or agar dilution, CLSI); settings: Streptococcus pneumoniae, ATCC49619, S. pneumoniae HAV#003, ATCC 49619; read-out: MIC
Summary of the method: as §1

S. pyogenes ATCC 19615 = assay: MIC (broth microdilution or agar dilution, CLSI); settings: Streptococcus pyogenes, ATCC19615, S. pyogenes HAV#004, ATCC 19615; read-out: MIC
Summary of the method: as §1

E. coli ATCC 25922 = assay: MIC (broth microdilution or agar dilution, CLSI); settings: Escherichia coli, ATCC25922; E. coli HAV#006, ATCC 25922; read-out: MIC
Summary of the method: as §1

[2] = test system: S. aureus ATCC BAA-1707 (MRSA); assay: MIC (broth microdilution or agar dilution, CLSI); settings: Staphylococcus aureus; S. aureus HAV#016, ATCC BAA-1707; MRSA; read-out: MIC
Summary of the method: as §1

S. aureus ATCC 29213 = assay: MIC (broth microdilution or agar dilution, CLSI); settings: Staphylococcus aureus, ATCC29213, S. aureus HAV#001, ATCC 29213, MP-549; read-out: MIC
Summary of the method: as §1

[3] = test system: S. pyogenes MMX 946; cErmB; assay: MIC (broth microdilution or agar dilution, CLSI); settings: Streptococcus pyogenes; S. pyogenes HAV#035, MMX 946; cErmB, mac-resistant; read-out: MIC
Summary of the method: as §1

E. coli LptD = assay: MIC (broth microdilution or agar dilution, CLSI); settings: Escherichia coli, E. coli HAV#040; LptD; read-out: MIC
Summary of the method: as §1

S. pneumoniae ATCC 6303 = assay: MIC (broth microdilution or agar dilution, CLSI); settings: Streptococcus pneumoniae, ATCC6303; S. pneumoniae HAV#351, ATCC 6303; read-out: MIC
Summary of the method: as §1

CO/N=C(\C(=O)N[C@@H]1C(=O)N2C(C(=O)O)=C(CSc3nc(=O)c(=O)[nH]n3C)CS[C@H]12)c1csc(N)n1 [Ceftriaxone]
MIC ([1]; Acinetobacter baumannii, A. baumannii HAV#651, Clinical): 4 µg/mL (≈ 7.21 µM)
MIC ([1]; Acinetobacter baumannii, A. baumannii HAV#652 Clinical): 16 µg/mL (≈ 28.9 µM)
MIC ([1]; Acinetobacter baumannii, A. baumannii HAV#653, Clinical): 2 µg/mL (≈ 3.61 µM)
MIC ([1]; Acinetobacter baumannii, A. baumannii HAV#654, Clinical): 4 µg/mL (≈ 7.21 µM)
MIC ([1]; Acinetobacter baumannii, A. baumannii HAV#655, Clinical): 64 µg/mL (≈ 115 µM)
MIC ([1]; Acinetobacter baumannii, A. baumannii HAV#656, Clinical): 64 µg/mL (≈ 115 µM)
MIC ([1]; Acinetobacter baumannii, A. baumannii HAV#657, Clinical): 64 µg/mL (≈ 115 µM)
MIC ([1]; Acinetobacter baumannii, A. baumannii HAV#658, Clinical): 16 µg/mL (≈ 28.9 µM)
MIC ([1]; Acinetobacter baumannii, A. baumannii HAV#659, Clinical): 32 µg/mL (≈ 57.7 µM)
MIC ([1]; Acinetobacter baumannii, A. baumannii HAV#660, Clinical): 32 µg/mL (≈ 57.7 µM)
MIC ([1]; Acinetobacter baumannii, A. baumannii HAV#661, Clinical): 2 µg/mL (≈ 3.61 µM)
MIC ([1]; Acinetobacter baumannii, A. baumannii HAV#662, Clinical): 32 µg/mL (≈ 57.7 µM)
MIC ([1]; Acinetobacter baumannii, A. baumannii HAV#663, Clinical): 16 µg/mL (≈ 28.9 µM)
MIC ([1]; Acinetobacter baumannii, A. baumannii HAV#664, Carbapenem R): 64 µg/mL (≈ 115 µM)
MIC ([1]; Enterococcus faecalis, E. faecalis HAV#607, Clinical): > 256 µg/mL
MIC ([1]; Enterococcus faecalis, E. faecalis HAV#608, Clinical): > 256 µg/mL
MIC ([1]; Enterococcus faecalis, E. faecalis HAV#609, Clinical): > 256 µg/mL
MIC ([1]; Enterococcus faecalis, E. faecalis HAV#610, Clinical): > 256 µg/mL
MIC ([1]; Enterococcus faecalis, S. faecalis 5060, Line R & Vanco R): > 256 µg/mL
MIC ([1]; Enterococcus faecalis, S. faecalis 5074, Line R): 256 µg/mL (≈ 462 µM)
MIC ([1]; Enterococcus faecalis, VRE, E. faecalis HAV#606, Clinical): > 256 µg/mL
MIC ([1]; Enterococcus faecium, E. faecium HAV#327, Clinical): 0.5 µg/mL (≈ 0.902 µM)
MIC ([1]; Enterococcus faecium, E. faecium HAV#328, Clinical): > 128 µg/mL
MIC ([1]; Enterococcus faecium, E. faecium HAV#329, Clinical): > 256 µg/mL
MIC ([1]; Escherichia coli, E. coli HAV#503, Clinical): > 128 µg/mL
MIC ([1]; Escherichia coli, E. coli HAV#511, Clinical): 16 µg/mL (≈ 28.9 µM)
MIC ([1]; Escherichia coli, E. coli HAV#512, Clinical): < 0.06 µg/mL
MIC ([1]; Escherichia coli, E. coli HAV#513, Clinical): 0.125 µg/mL (≈ 0.225 µM)
MIC ([1]; Escherichia coli, E. coli HAV#514, Clinical): 0.125 µg/mL (≈ 0.225 µM)
MIC ([1]; Escherichia coli, E. coli HAV#516, ESBL-producing): 64 µg/mL (≈ 115 µM)
MIC ([1]; Klebsiella pneumoniae, K. pneumoniae HAV#404, Clinical): 64 µg/mL (≈ 115 µM)
MIC ([1]; Klebsiella pneumoniae, K. pneumoniae HAV#405, Clinical): 64 µg/mL (≈ 115 µM)
MIC ([1]; Klebsiella pneumoniae, K. pneumoniae HAV#406, Clinical): < 0.06 µg/mL
MIC ([1]; Klebsiella pneumoniae, K. pneumoniae HAV#407, Clinical): 1 µg/mL (≈ 1.8 µM)
MIC ([1]; Klebsiella pneumoniae, K. pneumoniae HAV#408, Clinical): 2 µg/mL (≈ 3.61 µM)
MIC ([1]; Klebsiella pneumoniae, K. pneumoniae HAV#409, ESBL-producing): 128 µg/mL (≈ 231 µM)
MIC ([1]; Neisseria gonorrhoeae, N. gonorrhoeae HAV#701, Clinical): 0.125 µg/mL (≈ 0.225 µM)
MIC ([1]; Neisseria gonorrhoeae, N. gonorrhoeae HAV#702, Clinical): 0.25 µg/mL (≈ 0.451 µM)
MIC ([1]; Staphylococcus aureus, MRSA, S. aureus HAV#017, MRSA Col(Colindale, England)): > 128 µg/mL
MIC ([1]; Staphylococcus aureus, MRSA, S. aureus HAV#218, Line R): 32 µg/mL (≈ 57.7 µM)
MIC ([1]; Staphylococcus aureus, MRSA, S. aureus HAV#220, Line R): > 128 µg/mL
MIC ([1]; Staphylococcus aureus, MSSA, S. aureus HAV#219, Line R): 2 µg/mL (≈ 3.61 µM)
MIC ([1]; Staphylococcus aureus, S. aureus HAV#052, mecA, norA, fosB, blaZ): 64 µg/mL (≈ 115 µM)
MIC ([1]; Staphylococcus aureus, S. aureus HAV#053 mecA, norA, fosB): 128 µg/mL (≈ 231 µM)
MIC ([1]; Staphylococcus aureus, S. aureus HAV#054, mecA, norA, spcl, aad1, fosB, ermA, aac6′-aph2″, blaZ): > 256 µg/mL
MIC ([1]; Staphylococcus aureus, S. aureus HAV#211, Clinical): > 64 µg/mL
MIC ([1]; Staphylococcus aureus, S. aureus HAV#212, Clinical): 32 µg/mL (≈ 57.7 µM)
MIC ([1]; Staphylococcus aureus, S. aureus HAV#213, Clinical): 1 µg/mL (≈ 1.8 µM)
MIC ([1]; Staphylococcus aureus, S. aureus HAV#214, Clinical): 4 µg/mL (≈ 7.21 µM)
MIC ([1]; Staphylococcus aureus, S. aureus HAV#215, Clinical): 1 µg/mL (≈ 1.8 µM)
MIC ([1]; Staphylococcus aureus, S. aureus HAV#216, Clinical, cfr): 128 µg/mL (≈ 231 µM)
MIC ([1]; Staphylococcus aureus, S. aureus HAV#217, cfr): 64 µg/mL (≈ 115 µM)
MIC ([1]; Staphylococcus epidermidis, S. epidermidis HAV# 275 Clinical, cfr): > 128 µg/mL
MIC ([1]; Staphylococcus epidermidis, S. epidermidis HAV# 276, cfr): > 128 µg/mL
MIC ([1]; Staphylococcus epidermidis, S. epidermidis HAV#277, Line R): > 128 µg/mL
MIC ([1]; Staphylococcus epidermidis, S. epidermidis HAV#278 Line R): > 128 µg/mL
MIC ([1]; Staphylococcus epidermidis, S. epidermidis HAV#279, Line R): 4 µg/mL (≈ 7.21 µM)
MIC ([1]; Staphylococcus haemolyticus, S. haemolyticus 5052, Line R & Methicillin R): > 256 µg/mL
MIC ([1]; Streptococcus pneumoniae, ATCC700673, S. pneumoniae HAV#352, ATCC 700673, MDR): 1 µg/mL (≈ 1.8 µM)
MIC ([1]; Streptococcus pneumoniae, ATCCBAA255, S. pneumoniae HAV#354, ATCC-BAA-255): 1 µg/mL (≈ 1.8 µM)
MIC ([1]; Streptococcus pneumoniae, ATCCBAA334, S. pneumoniae HAV#353, ATCC-BAA-334): 1 µg/mL (≈ 1.8 µM)
MIC ([1]; Streptococcus pneumoniae, S. pneumoniae HAV#356, Clinical): 1 µg/mL (≈ 1.8 µM)
MIC ([1]; Streptococcus pneumoniae, S. pneumoniae HAV#358, Clinical): 1 µg/mL (≈ 1.8 µM)
MIC (E. coli armA): ≤ 0.06 µg/mL
MIC (S. aureus MP-549 msrA): > 128 µg/mL
MIC (E. coli ΔTolC): ≤ 0.06 µg/mL
MIC (S. aureus BAA 977 iErmA): 2 µg/mL (≈ 3.61 µM)
MIC (S. pneumoniae ATCC 49619): 0.06 µg/mL (≈ 0.108 µM)
MIC (S. pyogenes ATCC 19615): 0.06 µg/mL (≈ 0.108 µM)
MIC (E. coli ATCC 25922): 0.125 µg/mL (≈ 0.225 µM)
MIC [2]: 64 µg/mL (≈ 115 µM)
MIC (S. aureus ATCC 29213): 2 µg/mL (≈ 3.61 µM)
MIC [3]: ≤ 0.03 µg/mL
MIC (E. coli LptD): ≤ 0.06 µg/mL
MIC (S. pneumoniae ATCC 6303): 0.06 µg/mL (≈ 0.108 µM)
